The record followed here is patent US20230286816A1, “LITHIATED SILICON” (KING'S COLLEGE LONDON, priority 2020, published 2023).

In the test the test system is Wnt/β-catenin cell signalling pathway (downstream target gene Axin2). Kind of test: Axin2 expression (qPCR) in cells in medium conditioned with particles. To be noted: 25 mM LiCl, 17IA4 cells. The format is cell-based. The protocol: Biological activity of released lithium was measured by monitoring activation of Wnt/β-catenin cell signalling pathway by measuring the expression of the pathway's well-known downstream target gene Axin2. The experiment was done with cell medium conditioned with corresponding batch of nanoparticles. Known amounts of LipSi nanoparticles were pelleted with a centrifuge and sterile supernatant was removed. Nanoparticles were dried under tissue culture hood. Cell medium (αMEM supplemented with 10% FBS, 1% antibiotic/antimycotic solution and 25 mM HEPES) was added onto pellet and particles were redispersed with ultrasound. Concentrations of the particles were 0.8 mg/ml (FIG. 6a) and 1.6 mg/ml (FIG. 6b). Vials were incubated in thermoshaker at 37° C. for four days. Particles were centrifuged down and supernatant was collected under sterile conditions. Conditioned medium (supernatant) was filtered with 0.22 μm syringe filter.
20,000 cells/cm^2 of mesenchymal cells (17IA4) were seeded onto 24 well plate. Cells were incubated approximately for 24 hours until 80% confluent and the normal medium was changed to conditioned. Cells were incubated (37° C., 5% CO2) in conditioned medium for 24 h. […] Reported fold changes represent Axin2 expression in the sample compared to Axin2 expression in medium and they are calculated with ΔΔCt method as known in the art.

On to `[Cl-].[Li+]` [LiCl, lithium chloride], for which the “increase of Axin2 expression compared to medium” value runs as follows: (experiment of FIG. 6a (with SS9)) 3.2 fold; (experiment of FIG. 6b (with SS19)) 2.6 fold.
